Laboratory results as given in US11286247B2, “Acryloyl-containing nuclear transport regulators and uses thereof” (WIGEN BIOMEDICINE TECHNOLOGY (SHANGHAI) CO., LTD., priority 2019, dated 2022).
pIC50: −log10 of the molar value. Values after ≈ are worked out from the molar mass of the structure shown. Like-named read-outs stand apart in the source and are kept apart here.

Tests used:
CRM1 = target: T1, CRM1 (Homo sapiens, UniProt O14980); assay: Rev-GFP nuclear export assay; format: cell-based; settings: U2OS cells expressing Rev-GFP, 1 hour incubation, nuclear retention of Rev-GFP
T1 construct: The nuclear localization of Rev protein depends on CRM1; endogenous in cells; host or cells: U2OS cells stably or transiently expressing Rev-GFP (reporter cargo)
Method: The Rev protein from HIV contains nuclear export sequence (NES) at its C terminus and nuclear localization sequence (NLS) at its N-terminus. The nuclear localization of Rev protein depends on CRM1. U2OS cells expressing Rev protein fused with GFP (Rev-GFP) were plated in black 384 plates with clear bottom one day prior to treatment. Compounds were serially diluted 2-fold from 40 μM with DMEM in 384 plates, and then incubated with U2OS cells for an hour. Cells were fixed with 3.7% formaldehyde afterwards and nuclei were stained with Hoechst33258. The nuclear retention of Rev-GFP was examined, and IC50 was calculated.

[1] = In vivo pharmacokinetic analysis; settings: ICR, mouse; mice, 5 mg/kg, oral gavage in 0.5% CMC, plasma
Method: A group of 9 ICR mice received 5 mg/kg of compound in 0.5% CMC by oral gavage. Blood was taken before treatment and at 5 min, 30 min, 1, 2, 4, 8, 12 and 24 h after treatment. 80 μL of whole blood was sampled (n=3 at each time point) via retro-orbital bleeds or cardiac puncture. The blood sample was collected into EDTA tubes and plasma were obtained by centrifugation at 1500-1600 rpm for 10 min at 4° C. After centrifugation, plasma sample was transferred to a new tube and stored at −60 to −90° C. for future analysis. Plasma concentration of (compounds was quantified by a method based on liquid chromatography coupled to tandem mass-spectrometric detections (LC/MS/MS). Noncompartmental pharmacokinetics parameters were calculated.

[2] = system: MDA-MB-231 cells (breast cancer cells); assay: Cancer cell proliferation assay, MDA-MB-231; format: cell-based; settings: Homo sapiens; for IC50: MDA-MB-231, 72 h, three days incubation, absorbance 570 nm, read-out: IC50 (μM) MDA-MB-231; for pIC50: MDA-MB-231, anti-proliferative assay, read-out: IC50 in MDA-MB-231 cells
Method: (§1) BxPC-3 cells (pancreatic cancer) and MDA-MB-231 cells (breast cancer cells) were harvested from exponential phase cultures and seeded in 96-well plates at a cell density of 2×10^4 per well. After overnight attachment, compounds including positive controls were applied to cells at five concentrations and incubated for three days. During the last four hours of incubation, 20 μL of 5 mg/mL […] was added followed by the further addition of 100 μL DMSO. The plates were subsequently shook for 10 minutes to dissolve insoluble purple formazan. Absorbance (A) at a wavelength of 570 nm was quantified. Percentage of inhibition was used for the calculation of IC50 based on the bliss method.

[3] = system: BxPC-3 cells (pancreatic cancer); assay: Cancer cell proliferation assay, BxPC-3; format: cell-based; settings: for IC50 / pIC50: Homo sapiens; for IC50: BXPC-3, 72 h, three days incubation, absorbance 570 nm, read-out: IC50 (μM) BxPC-3; for pIC50: BXPC-3, anti-proliferative assay, read-out: IC50 in BxPC-3 cells
Method: as §1

Aqueous solubility assay = format: physicochemical; settings: thermodynamic from solid, HPLC
Method: 10-30 mg of compounds were dissolved in water and an HCl solution at pH1.2 respectively, and then were continuously shook for three days, followed by centrifugation at 10000 rpm/minute for five minutes. A 2 mL aliquot of supernatant was removed and diluted to 50 mL to prepare a sample solution. A control solution was prepared by dissolving 2.5 mg compounds in methanol, which was subsequently diluted with water to a final volume of 50 mL. 20 μL of control and sample solutions were injected into HPLC. The area under the curve (A) of the sample solution was compared with that of the control solution and used for determination of the concentration. Solubility was calculated by the formula below. Solubility (mg/mL)=c(control)*25*A(sample)/A(control) • C (control): concentration of the control solution • A (sample): area under the curve of the sample solution • A (control): area under the curve of the control solution

BxPC-3 xenografts = assay: Anti-tumor growth efficacy in pancreatic tumor BxPC3 nude mice xenograft model; format: in vivo; settings: for Tumor volume D1 / average body weight D1: D1, first day of drug treatment; for Tumor volume D1 / average body weight D1 / TGI (tumor growth inhibition) / Tumor volume D21 / average body weight D21 / RTV (relative tumor volume, Vt/V0) / T/C: oral: KPT-330 and 38 10 mg/kg tiw, 79 2.5 mg/kg tiw, 62 10 mg/kg qd; for TGI (tumor growth inhibition) / Tumor volume D21 / average body weight D21 / RTV (relative tumor volume, Vt/V0): D21; for RTV (relative tumor volume, Vt/V0): *P < 0.05 vs. vehicle group; for T/C: TRTV/CRTV X 100
Method: BxPC-3 cells were cultured in 1640 medium containing 10% FBS at 37° C. and 5% CO2, 8×10^6 BxPc-3 cells were implanted subcutaneously into the left armpit of 40 nude mice. […] Compound 62 was administered orally everyday (qd) at 10 mg/kg, whereas KPT330 and compound 38 were given three times a week (tiw, Monday, Wednesday and Friday) at 10 mg/kg by oral gavage, and compound 79 were given three times a week (tiw, Monday, Wednesday and Friday) at 2.5 mg/kg by oral gavage. Tumor volume and body weight were measured every other day. Mice were sacrificed on day 21, and tumor and terminal body weight were recorded. The relative tumor volume, percent treatment/control values and tumor growth inhibition were calculated and statistics was performed.

[4] = simulated gastric fluid, HCl solution of pH 1.2, shaken three days, read-out: Solubility, HCl solution of pH 1.2
[5] = water, shaken three days, read-out: Solubility, Water

T1 sequence (O14980 whole entry): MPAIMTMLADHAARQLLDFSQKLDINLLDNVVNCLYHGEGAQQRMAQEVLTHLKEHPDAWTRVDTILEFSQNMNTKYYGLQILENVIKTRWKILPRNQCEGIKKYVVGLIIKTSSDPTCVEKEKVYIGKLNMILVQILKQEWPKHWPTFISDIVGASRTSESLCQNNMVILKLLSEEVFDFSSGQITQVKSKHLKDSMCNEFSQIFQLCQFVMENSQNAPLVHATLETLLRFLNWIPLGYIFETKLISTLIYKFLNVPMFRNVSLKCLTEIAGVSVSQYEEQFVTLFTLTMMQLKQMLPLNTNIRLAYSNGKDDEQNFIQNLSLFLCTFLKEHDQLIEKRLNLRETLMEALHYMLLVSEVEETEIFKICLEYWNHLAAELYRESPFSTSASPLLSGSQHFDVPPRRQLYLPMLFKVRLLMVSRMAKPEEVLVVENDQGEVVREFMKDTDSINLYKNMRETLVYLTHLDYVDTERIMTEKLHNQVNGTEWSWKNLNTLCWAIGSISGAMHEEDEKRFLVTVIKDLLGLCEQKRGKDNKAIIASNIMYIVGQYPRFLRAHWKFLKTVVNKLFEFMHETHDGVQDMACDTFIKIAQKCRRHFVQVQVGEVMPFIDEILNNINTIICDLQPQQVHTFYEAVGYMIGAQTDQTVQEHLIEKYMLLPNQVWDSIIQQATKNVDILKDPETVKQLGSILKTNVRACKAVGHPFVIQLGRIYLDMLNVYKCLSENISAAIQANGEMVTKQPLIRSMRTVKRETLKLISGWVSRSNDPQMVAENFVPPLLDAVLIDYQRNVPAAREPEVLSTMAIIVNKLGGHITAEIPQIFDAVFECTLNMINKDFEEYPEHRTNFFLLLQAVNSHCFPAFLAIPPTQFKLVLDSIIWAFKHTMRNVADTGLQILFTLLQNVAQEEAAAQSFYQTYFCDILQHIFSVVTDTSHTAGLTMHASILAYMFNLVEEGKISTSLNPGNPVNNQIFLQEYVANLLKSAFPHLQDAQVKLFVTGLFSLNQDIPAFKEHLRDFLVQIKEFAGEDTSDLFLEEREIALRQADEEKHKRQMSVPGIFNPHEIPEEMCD

Row | pIC50 (CRM1) | AUC(0-t) [1] [ng·h/mL] | Cmax [1] [ng/mL] | MRT [1] [h] | Tmax [1] [min] | half-life [1] [min] | IC50 [2] [µM] | IC50 [3] [µM] | solubility at 3 days (Aqueous solubility assay; [4]) [µg/mL] | solubility at 3 days (Aqueous solubility assay; [5]) [µg/mL] | SMILES | Tumor volume D1 (BxPC-3 xenografts) [mm^3] | average body weight D1 (BxPC-3 xenografts) [g] | TGI (tumor growth inhibition) (BxPC-3 xenografts) [%] | Tumor volume D21 (BxPC-3 xenografts) [mm^3] | average body weight D21 (BxPC-3 xenografts) [g] | T/C (BxPC-3 xenografts) [%] | also measured
1 | > 6.00 | – | – | – | – | – | 0.407 | 0.664 | 159 (≈ 307 µM) | 40.3 (≈ 78.1 µM) | CN1CCC2(CC1)CC(=O)N(NC(=O)/C=C\n1cnc(-c3cc(C(F)(F)F)cc(C(F)(F)F)c3)n1)C2 [Compound 23, (Z)-3-(3-(3,5-bis(trifluoromethyl)phenyl)-1H-1,2,4-triazol-1-yl)-N-(8-methyl-3-oxo-2,8-diazaspiro[4.5]decan-2-yl)acrylamide] | – | – | – | – | – | – | –
2 | > 6.00 | 5770 | 697 | 6.76 | 60 | 262 | 0.165 | 0.156 | – | – | O=C(/C=C\n1cnc(-c2cc(C(F)(F)F)cc(C(F)(F)F)c2)n1)NN1C(=O)[C@@H]2CC[C@H]1C2 [Compound 33, (Z)-3-(3-(3,5-bis(trifluoromethyl)phenyl)-1H-1,2,4-triazol-1-yl)-N-((1S,4R)-3-oxo-2-azabicyclo[2.2.1]heptan-2-yl)acrylamide] | – | – | – | – | – | – | –
3 | > 6.00 | 4390 | 536 | 6.67 | 30 | 272 | 0.654 | 0.283 | 71.4 (≈ 159 µM) | 50.4 (≈ 112 µM) | O=C(/C=C\n1cnc(-c2cc(C(F)(F)F)cc(C(F)(F)F)c2)n1)NN1CCOCC1=O [Compound 38, (Z)-3-(3-(3,5-bis(trifluoromethyl)phenyl)-1H-1,2,4-triazol-1-yl)-N-(3-oxomorpholino)acrylamide] | 65.89 ± 12.63 | 19.02 | 78.20 | 149.62 ± 23.20 | 20.80 | 36.02 | effect on body weight (in words) (BxPC-3 xenografts; 10 mg/kg, compared to KPT-330): less effect on body weight; RTV (relative tumor volume, Vt/V0) (BxPC-3 xenografts): 2.45*; anti-tumor growth activity in BxPC-3 xenograft model (in words) (BxPC-3 xenografts; Example 79 2.5 mg/kg, Example 38 10 mg/kg, compared to 10 mg/kg KPT-330): greater efficacy
4 | > 6.00 | – | – | – | – | – | 0.186 | 0.124 | 220 (≈ 508 µM) | 320 (≈ 738 µM) | CN1C(=O)CCN1C(=O)/C=C\n1cnc(-c2cc(C(F)(F)F)cc(C(F)(F)F)c2)n1 [Compound 62, (Z)-1-(3-(3-(3,5-bis(trifluoromethyl)phenyl)-1H-1,2,4-triazol-1-yl)acryloyl)-2-methylpyrazolidin-3-one] | 65.32 ± 6.61 | 20.55 | 77.35 | 152.32 ± 24.78 | 21.08 | 35.10 | RTV (relative tumor volume, Vt/V0) (BxPC-3 xenografts): 2.33*
5 | > 6.00 | 4080 | 389 | 6.56 | 30 | 162 | 0.021 | 0.041 | – | – | COC1=CC(=O)N(NC(=O)/C=C\n2cnc(-c3cc(C(F)(F)F)cc(C(F)(F)F)c3)n2)CC1 [Compound 87, (Z)-3-(3-(3,5-bis(trifluoromethyl)phenyl)-1H-1,2,4-triazol-1-yl)-N-(4-methoxy-6-oxo-3,6-dihydropyridin-1(2H)-yl)acrylamide] | – | – | – | – | – | – | pIC50 [2]: 7.68; pIC50 [3]: 7.39; folds of enhancement of activity in the anti-proliferative assay ([3]; in comparison to KPT330, BxPC-3 and MDA-MB-231 cells): 20 folds
6 | – | – | – | – | – | – | – | – | 349 (≈ 861 µM) | 156 (≈ 386 µM) | O=C(/C=C\n1cnc(-c2cc(C(F)(F)F)cc(C(F)(F)F)c2)n1)N1CCCN1 [Compound 90, (Z)-3-(3-(3,5-bis(trifluoromethyl)phenyl)-1H-1,2,4-triazol-1-yl)-1-(pyrazolidin-1-yl)prop-2-en-1-one] | – | – | – | – | – | – | –

Further lines, the compound ahead of its results:

Row | SMILES | pIC50 (CRM1) | AUC(0-t) [1] [ng·h/mL] | Cmax [1] [ng/mL] | MRT [1] [h] | Tmax [1] [min] | half-life [1] [min] | IC50 [2] [µM] | IC50 [3] [µM] | solubility at 3 days (Aqueous solubility assay; [4]) [µg/mL] | solubility at 3 days (Aqueous solubility assay; [5]) [µg/mL] | Tumor volume D1 (BxPC-3 xenografts) [mm^3] | average body weight D1 (BxPC-3 xenografts) [g] | TGI (tumor growth inhibition) (BxPC-3 xenografts) [%] | Tumor volume D21 (BxPC-3 xenografts) [mm^3] | average body weight D21 (BxPC-3 xenografts) [g] | T/C (BxPC-3 xenografts) [%] | also measured
7 | O=C(/C=C\n1cnc(-c2cc(C(F)(F)F)cc(C(F)(F)F)c2)n1)NN1CCCC1=O [Compound 2, (Z)-3-(3-(3,5-bis(trifluoromethyl)phenyl)-1H-1,2,4-triazol-1-yl)-N-(2-oxopyrrolidin-1-yl)acrylamide] | > 6.00 | 2660 | 502 | 6.59 | 30 | 275 | 0.024 | 0.269 | 14.6 (≈ 33.6 µM) | 11.3 (≈ 26.1 µM) | – | – | – | – | – | – | –
8 | COCCN1C(=O)CCN1C(=O)/C=C\n1cnc(-c2cc(C(F)(F)F)cc(C(F)(F)F)c2)n1 [Compound 71, (Z)-1-(3-(3-(3,5-bis(trifluoromethyl)phenyl)-1H-1,2,4-triazol-1-yl)acryloyl)-2-(2-methoxyethyl)pyrazolidin-3-one] | > 6.00 | – | – | – | – | – | 0.245 | 0.586 | 147 (≈ 307 µM) | 229 (≈ 479 µM) | – | – | – | – | – | – | –
9 | O=C(/C=C\n1cnc(-c2cc(C(F)(F)F)cc(C(F)(F)F)c2)n1)N1CCC(=O)N1CC1CC1 [Compound 72, (Z)-1-(3-(3-(3,5-bis(trifluoromethyl)phenyl)-1H-1,2,4-triazol-1-yl)acryloyl)-2-(cyclopropylmethyl)pyrazolidin-3-one] | > 6.00 | – | – | – | – | – | 0.119 | 0.137 | 27.4 (≈ 58 µM) | 20.9 (≈ 44.2 µM) | – | – | – | – | – | – | –
10 | O=C(/C=C\n1cnc(-c2cc(C(F)(F)F)cc(C(F)(F)F)c2)n1)NNc1cnccn1 [KPT-330, Selinexor, reference compound] | – | 2470 | 325 | 6.94 | 30 | 160 | 0.458 | 0.705 | 6.52 (≈ 14.7 µM) | 6.25 (≈ 14.1 µM) | 65.06 ± 6.45 | 19.97 | 77.55 | 151.31 ± 23.90 | 19.97 | 35.02 | pIC50 [2]: 6.34; pIC50 [3]: 6.15
